Here are results for four compounds from US5138059A, “DC-89 compounds and process for their preparation” (priority 1988, dated 1992).

Converted amounts (≈) assume the structure as drawn.

The subject of series [1] is lymphocytic leukemia P388. The series can be described thus: Therapeutical effect against lymphocytic leukemia P388. It is filed as in vivo, male CDF1 mice. As to the method: Five male CDF1 mice each weighing about 22 g were used for each group, and 1×10^6 cells of lymphocytic leukemia P388 tumor cells were implanted intraperitoneally into the mice. Twenty-four hours after the implantation, 0.2 ml of PBS containing the DC-89 compound was intraperitoneally administered once. For comparison, 0.2 ml of PBS containing mitomycin C was intraperitoneally administered 24 hours after implantation of the tumor cells. The increased life span (T/C) [T: mean survival time (days) of the test groups, C: mean survival time (days) of the control group which received an intraperitoneal administration of 0.2 ml of PBS] after the implantation is shown in Table 4.

Series [2] deals with Staphylococcus aureus ATCC 6538P. The series can be described thus: Antibacterial activity, agar dilution method (MIC). The following applies: ATCC6538P, pH 7, read-out: Minimum inhibitory concentration (MIC). It is filed as cell-based. As to the method:
(§1) The antibacterial activity was determined by the agar dilution method using a medium (pH 7) prepared by dissolving 3 g of Bacto-tryptone (Difco Laboratories), 3 g of meat extract, 1 g of yeast extract, 1 g of glucose and 16 g of agar in 1 liter of water.
A general note: In agar dilution, organisms are placed on agar that contains the substance at set levels.

Series [3] deals with Klebsiella pneumoniae ATCC 10031. Put plainly: Antibacterial activity, agar dilution method (MIC). It is filed as cell-based. As to conditions: ATCC10031; Klebsiella pneumoniae ATCC 10031, agar dilution, pH 7; read-out: Minimum inhibitory concentration (MIC). As to the method:
as §1

The subject of series [4] is Bacillus subtilis No. 10707. Put plainly: Antibacterial activity, agar dilution method (MIC). The following applies: Bacillus subtilis No. 10707, agar dilution, pH 7; read-out: Minimum inhibitory concentration (MIC). Type of series: cell-based. As to the method: as §1
A further series concerns Escherichia coli ATCC 26. Put plainly: Antibacterial activity, agar dilution method (MIC). Type of series: cell-based. As to conditions: ATCC26; Escherichia coli ATCC 26, agar dilution, pH 7; read-out: Minimum inhibitory concentration (MIC). As to the method: as §1
Series [5] concerns Salmonella typhi ATCC 9992. The series can be described thus: Antibacterial activity, agar dilution method (MIC). The following applies: Salmonella enterica; Salmonella typhi ATCC 9992, agar dilution, pH 7; read-out: Minimum inhibitory concentration (MIC). Type of series: cell-based. As to the method:
as §1

Series [6] in a line: Acute toxicity (LD50), intraperitoneal, mice. As to conditions: mouse, in vivo, ip.
A further series in a line: Solubility. Type of series: physicochemical.
The subject of another series is Sarcoma 180 solid tumor. Put plainly: Therapeutical effect against Sarcoma 180 solid tumor. The following applies: 10 days after implantation. It is filed as in vivo, ddY male mice. As to the method:
Six ddY male mice each weighing about 20 g were used for each group, and 5×10^6 Sarcoma 180 solid tumor cells were implanted subcutaneously into the mice at the axilla. Twenty-four hours after the implantation, 0.2 ml of a phosphate buffer saline (hereinafter referred to as PBS) containing the DC-89 compound in the concentration shown in Table 3 was intraperitoneally administered once.
The composition of PBS was 0.8 g/dl NaCl, 0.02 g/dl KCl, […] Na2 HPO4 and 0.02 g/dl KH2 PO4 (pH 7.2).
For comparison, 0.2 ml of PBS containing mitomycin C was intraperitoneally administered 24 hours after implantation of the tumor cells.
Ten days after the implantation, T/C [T: average tumor volume (mm^3) of the test groups, C: average tumor volume (mm^3) of the control group which received an intraperitoneal administration of 0.2 ml of PBS] was determined.

[7] abbreviates: in methanol, ethanol, ethyl acetate, acetone, chloroform and dimethylsulfoxide.
Setting [8] is: 4 mg/kg, i.p. 24 h after implantation.

Take `COC(=O)C1(C)Nc2c(O)cc3c(c2C1=O)C(CCl)CN3C(=O)c1cc2cc(OC)c(OC)c(OC)c2[nH]1` (centres unmarked) [DC-89A2]: the “Increased Life Span (T/C) (mean survival time)” value (“Increased Life Span (T/C)” for short) in series [1] (0.125 mg/kg, i.p. once 24 h after implantation) came out at 1.35. Moreover, the MIC worked out at 0.052 µg/mL (≈ 0.0956 µM) in [2]; 0.42 µg/mL (≈ 0.772 µM) in [3]; 0.0065 µg/mL (≈ 0.0119 µM) in [4]; 5.2 µg/mL (≈ 9.56 µM) in the series on Escherichia coli ATCC 26; 10.4 µg/mL (≈ 19.1 µM) in [5]. Further, the 50% lethal dose (LD50) (as a rule, the dose at which mortality reaches 50%) in [6] is about 3.83 mg/kg. The Solubility result in the series “Solubility” (setting [7]) is “readily soluble”; in “Solubility” (in water and n-hexane), “sparingly soluble”. Further, in the series on Sarcoma 180 solid tumor (3 mg/kg, i.p. once 24 h after implantation), the “T/C (average tumor volume)” value stood at 0.19.

For `COC(=O)C1(C)Nc2c(O)cc3c(c2C1=O)CC(Br)CN3C(=O)c1cc2cc(OC)c(OC)c(OC)c2[nH]1` (centres unmarked) [DC-89B1], the “Increased Life Span (T/C)” value in [1] (0.0156 mg/kg, i.p. once 24 h after implantation) stood at 1.35. In addition, the MIC was 0.0008 µg/mL (≈ 0.00136 µM) in series [2]; 0.026 µg/mL (≈ 0.0442 µM) in [3]; 0.013 µg/mL (≈ 0.0221 µM) in [4]; 0.33 µg/mL (≈ 0.561 µM) in the series with Escherichia coli ATCC 26; 1.3 µg/mL (≈ 2.21 µM) in [5]. Further, the LD50 in [6] was about 0.37 mg/kg. Besides, the Solubility result in “Solubility” (setting [7]) is recorded as “readily soluble”; in the series “Solubility” (in water and n-hexane), “sparingly soluble”. For the same compound, in the series on Sarcoma 180 solid tumor (0.5 mg/kg, i.p. once 24 h after implantation), the “T/C (average tumor volume)” value was determined as 0.22.

As for `COC(=O)C1(C)Nc2c(O)cc3c(c2C1=O)C(CBr)CN3C(=O)c1cc2cc(OC)c(OC)c(OC)c2[nH]1` (centres unmarked) [DC-89B2], the “Increased Life Span (T/C)” value in series [1] (0.0781 mg/kg, i.p. once 24 h after implantation) is 1.19. In addition, the MIC came out at 0.0033 µg/mL (≈ 0.00561 µM) in [2]; 0.1 µg/mL (≈ 0.17 µM) in series [3]; 0.0033 µg/mL (≈ 0.00561 µM) in [4]; 1.3 µg/mL (≈ 2.21 µM) in the series with Escherichia coli ATCC 26; 2.6 µg/mL (≈ 4.42 µM) in series [5]. In [6], this compound had a median lethal dose (LD50) of about 0.28 mg/kg. For the same compound, the Solubility entry in “Solubility” (setting [7]) is recorded as “readily soluble”; in the series “Solubility” (in water and n-hexane), “sparingly soluble”. In addition, in the series on Sarcoma 180 solid tumor (0.25 mg/kg, i.p. once 24 h after implantation), the “T/C (average tumor volume)” value was found to be 0.28.

`CO[C@@]12[C@H](COC(N)=O)C3=C(C(=O)C(C)=C(N)C3=O)N1C[C@@H]1N[C@@H]12` [Mitomycin C, mitomycin C, reference compound]: the “Increased Life Span (T/C)” value in series [1] (setting [8]) was 1.66. For the same compound, the “T/C (average tumor volume)” value with Sarcoma 180 solid tumor (setting [8]) is reported as 0.30.
